# Source: patent publication US7517874B2 (priority 2007, dated 2009)
# pEC50: −log10 of the molar value. Read-outs that look alike come from different tables or passages of the source.
# How the values were obtained:
# [1] = target: human CB1 receptor (hCB1) (Homo sapiens, UniProt P21554); experiment: cell-based; assay type: cell-based; conditions: for +/− HCB1: agonist or inverse agonist at hCB1
# In short: (§1)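 Agonism or inverse agonism was assessed as change in intracellular cAMP in CHO-K1 cells expressing human CB1 or rat CB2 (genomic DNA, pcDNA3.1).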
# rat CB2 receptor (rCB2) = target: T1, rat CB2 receptor (rCB2) (Rattus norvegicus, UniProt Q9QZN9); experiment: cell-based; assay type: cell-based; conditions: for +/− RCB2: agonist or inverse agonist at rCB2
# T1 sequence (Q9QZN9 1-360): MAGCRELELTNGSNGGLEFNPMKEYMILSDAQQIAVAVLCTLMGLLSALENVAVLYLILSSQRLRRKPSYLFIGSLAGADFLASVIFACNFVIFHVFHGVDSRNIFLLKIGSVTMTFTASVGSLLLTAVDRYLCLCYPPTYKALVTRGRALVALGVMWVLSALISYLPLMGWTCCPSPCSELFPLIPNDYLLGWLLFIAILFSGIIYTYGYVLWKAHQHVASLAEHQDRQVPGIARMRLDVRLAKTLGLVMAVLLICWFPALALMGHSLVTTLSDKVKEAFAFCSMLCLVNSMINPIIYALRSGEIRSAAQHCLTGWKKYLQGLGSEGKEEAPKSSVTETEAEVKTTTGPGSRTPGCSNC
# In short: as §1
# Sequence of human CB1 receptor (hCB1) (P21554 whole entry): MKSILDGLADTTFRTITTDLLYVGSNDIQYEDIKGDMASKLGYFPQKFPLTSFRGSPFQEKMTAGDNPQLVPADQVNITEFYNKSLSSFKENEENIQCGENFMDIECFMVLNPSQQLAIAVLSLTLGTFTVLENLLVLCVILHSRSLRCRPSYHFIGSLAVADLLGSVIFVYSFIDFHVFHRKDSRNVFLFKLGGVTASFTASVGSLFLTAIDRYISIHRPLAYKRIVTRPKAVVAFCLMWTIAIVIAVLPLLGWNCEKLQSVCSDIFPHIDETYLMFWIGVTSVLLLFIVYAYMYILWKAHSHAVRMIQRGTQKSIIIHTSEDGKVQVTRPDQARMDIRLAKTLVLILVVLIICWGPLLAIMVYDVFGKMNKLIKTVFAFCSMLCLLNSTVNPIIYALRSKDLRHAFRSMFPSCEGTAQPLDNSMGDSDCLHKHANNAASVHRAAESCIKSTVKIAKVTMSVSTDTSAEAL
Compound,+/− HCB1 [1],+/− RCB2 (rat CB2 receptor (rCB2)),other results
"CN1CCCn2c(-c3cc(Cl)ccc3F)nc(C(=O)N[C@H](C(N)=O)C(C)(C)C)c2C1 [Compound 574, (S)-N-(1-amino-3,3-dimethyl-1-oxobutan-2-yl)-3-(5-chloro-2-fluorophenyl)-8-methyl-6,7,8,9-tetrahydro-5H-imidazo[1,5-a][1,4]diazepine-1-carboxamide]",+,+,
"CN1CCCn2c(-c3cc(F)ccc3F)nc(C(=O)N[C@H](C(N)=O)C(C)(C)C)c2C1 [Compound 575, (S)-N-(1-amino-3,3-dimethyl-1-oxobutan-2-yl)-3-(2,5-difluorophenyl)-8-methyl-6,7,8,9-tetrahydro-5H-imidazo[1,5-a][1,4]diazepine-1-carboxamide]",+,+,
"CN1CCCn2c(-c3ccc(F)c(Cl)c3)nc(C(=O)N[C@H](C(N)=O)C(C)(C)C)c2C1 [Compound 576, (S)-N-(1-amino-3,3-dimethyl-1-oxobutan-2-yl)-3-(3-chloro-4-fluorophenyl)-8-methyl-6,7,8,9-tetrahydro-5H-imidazo[1,5-a][1,4]diazepine-1-carboxamide]",+,+,
"CN1CCCn2c(-c3ccc(Cl)c(F)c3)nc(C(=O)N[C@H](C(N)=O)C(C)(C)C)c2C1 [Compound 577, (S)-N-(1-amino-3,3-dimethyl-1-oxobutan-2-yl)-3-(4-chloro-3-fluorophenyl)-8-methyl-6,7,8,9-tetrahydro-5H-imidazo[1,5-a][1,4]diazepine-1-carboxamide]",+,+,
"CN1CCCn2c(-c3ccc(F)cc3F)nc(C(=O)N[C@H](C(N)=O)C(C)(C)C)c2C1 [Compound 578, (S)-N-(1-amino-3,3-dimethyl-1-oxobutan-2-yl)-3-(2,4-difluorophenyl)-8-methyl-6,7,8,9-tetrahydro-5H-imidazo[1,5-a][1,4]diazepine-1-carboxamide]",+,+,
"CN1CCCn2c(-c3cc(F)c(F)cc3F)nc(C(=O)N[C@H](C(N)=O)C(C)(C)C)c2C1 [Compound 579, (S)-N-(1-amino-3,3-dimethyl-1-oxobutan-2-yl)-8-methyl-3-(2,4,5-trifluorophenyl)-6,7,8,9-tetrahydro-5H-imidazo[1,5-a][1,4]diazepine-1-carboxamide]",+,+,
"CN1CCCn2c(-c3cc(Cl)c(F)cc3F)nc(C(=O)N[C@H](C(N)=O)C(C)(C)C)c2C1 [Compound 580, (S)-N-(1-amino-3,3-dimethyl-1-oxobutan-2-yl)-3-(5-chloro-2,4-difluorophenyl)-8-methyl-6,7,8,9-tetrahydro-5H-imidazo[1,5-a][1,4]diazepine-1-carboxamide]",+,+,
"CN1CCCn2c(-c3ccc(F)c(F)c3)nc(C(=O)N[C@H](C(N)=O)C(C)(C)C)c2C1 [Compound 581, (S)-N-(1-amino-3,3-dimethyl-1-oxobutan-2-yl)-3-(3,4-difluorophenyl)-8-methyl-6,7,8,9-tetrahydro-5H-imidazo[1,5-a][1,4]diazepine-1-carboxamide]",+,+,
CN1CCCn2c(-c3ccccc3)nc(C(=O)N[C@H](C(N)=O)C(C)(C)C)c2C1 [Compound 582],,+,pEC50 [1]: < 5.00
"CN1CCCn2c(-c3cc(F)ccc3F)nc(C(=O)N[C@@H](CC(C)(C)C)C(N)=O)c2C1 [Compound 583, (S)-N-(1-amino-4,4-dimethyl-1-oxopentan-2-yl)-3-(2,5-difluorophenyl)-8-methyl-6,7,8,9-tetrahydro-5H-imidazo[1,5-a][1,4]diazepine-1-carboxamide]",+,+,
"CN1CCCn2c(-c3ccc(Cl)cc3F)nc(C(=O)N[C@@H](CC(C)(C)C)C(N)=O)c2C1 [Compound 584, (S)-N-(1-amino-4,4-dimethyl-1-oxopentan-2-yl)-3-(4-chloro-2-fluorophenyl)-8-methyl-6,7,8,9-tetrahydro-5H-imidazo[1,5-a][1,4]diazepine-1-carboxamide]",+,+,
"CN1CCCn2c(-c3cc(Cl)ccc3F)nc(C(=O)N[C@@H](CC(C)(C)C)C(N)=O)c2C1 [Compound 585, (S)-N-(1-amino-4,4-dimethyl-1-oxopentan-2-yl)-3-(5-chloro-2-fluorophenyl)-8-methyl-6,7,8,9-tetrahydro-5H-imidazo[1,5-a][1,4]diazepine-1-carboxamide]",+,+,
"CN1CCCn2c(-c3ccc(F)c(F)c3)nc(C(=O)N[C@@H](CC(C)(C)C)C(N)=O)c2C1 [Compound 586, (S)-N-(1-amino-4,4-dimethyl-1-oxopentan-2-yl)-3-(3,4-difluorophenyl)-8-methyl-6,7,8,9-tetrahydro-5H-imidazo[1,5-a][1,4]diazepine-1-carboxamide]",+,+,
"CN1CCCn2c(-c3ccc(F)c(Cl)c3)nc(C(=O)N[C@@H](CC(C)(C)C)C(N)=O)c2C1 [Compound 587, (S)-N-(1-amino-4,4-dimethyl-1-oxopentan-2-yl)-3-(3-chloro-4-fluorophenyl)-8-methyl-6,7,8,9-tetrahydro-5H-imidazo[1,5-a][1,4]diazepine-1-carboxamide]",+,+,
"CN1CCCn2c(-c3ccc(Cl)c(F)c3)nc(C(=O)N[C@@H](CC(C)(C)C)C(N)=O)c2C1 [Compound 588, (S)-N-(1-amino-4,4-dimethyl-1-oxopentan-2-yl)-3-(4-chloro-3-fluorophenyl)-8-methyl-6,7,8,9-tetrahydro-5H-imidazo[1,5-a][1,4]diazepine-1-carboxamide]",+,+,
"CN1CCCn2c(-c3ccc(F)cc3F)nc(C(=O)N[C@@H](CC(C)(C)C)C(N)=O)c2C1 [Compound 589, (S)-N-(1-amino-4,4-dimethyl-1-oxopentan-2-yl)-3-(2,4-difluorophenyl)-8-methyl-6,7,8,9-tetrahydro-5H-imidazo[1,5-a][1,4]diazepine-1-carboxamide]",+,+,
"CN1CCCn2c(-c3cc(F)c(F)cc3F)nc(C(=O)N[C@@H](CC(C)(C)C)C(N)=O)c2C1 [Compound 590, (S)-N-(1-amino-4,4-dimethyl-1-oxopentan-2-yl)-8-methyl-3-(2,4,5-trifluorophenyl)-6,7,8,9-tetrahydro-5H-imidazo[1,5-a][1,4]diazepine-1-carboxamide]",+,+,
"CN1CCCn2c(-c3cc(Cl)c(F)cc3F)nc(C(=O)N[C@@H](CC(C)(C)C)C(N)=O)c2C1 [Compound 591, (S)-N-(1-amino-4,4-dimethyl-1-oxopentan-2-yl)-3-(5-chloro-2,4-difluorophenyl)-8-methyl-6,7,8,9-tetrahydro-5H-imidazo[1,5-a][1,4]diazepine-1-carboxamide]",+,+,
"CNC(=O)[C@H](Cc1cscn1)NC(=O)c1nc(-c2cc(F)c(F)cc2F)n2c1CN(C)CCC2 [Compound 592, (S)-8-methyl-N-(1-(methylamino)-1-oxo-3-(thiazol-4-yl)propan-2-yl)-3-(2,4,5-trifluorophenyl)-6,7,8,9-tetrahydro-5H-imidazo[1,5-a][1,4]diazepine-1-carboxamide]",,,pEC50 [1]: < 5.00; pEC50 (rat CB2 receptor (rCB2)): < 5.00
"CNC(=O)[C@H](Cc1cscn1)NC(=O)c1nc(-c2cc(Cl)c(F)cc2F)n2c1CN(C)CCC2 [Compound 593, (S)-3-(5-chloro-2,4-difluorophenyl)-8-methyl-N-(1-(methylamino)-1-oxo-3-(thiazol-4-yl)propan-2-yl)-6,7,8,9-tetrahydro-5H-imidazo[1,5-a][1,4]diazepine-1-carboxamide]",+,+,
"CNC(=O)[C@@H](NC(=O)c1nc(C2=CCOCC2)n2c1CN(C)CCC2)C(C)(C)C [Compound 594, (S)-3-(3,6-dihydro-2H-pyran-4-yl)-N-(3,3-dimethyl-1-(methylamino)-1-oxobutan-2-yl)-8-methyl-6,7,8,9-tetrahydro-5H-imidazo[1,5-a][1,4]diazepine-1-carboxamide]",+,+,
"CN1CCCn2c(-c3ccccc3)nc(C(=O)Nc3cc(C(C)(C)C)on3)c2C1 [Compound 595, N-(5-tert-butylisoxazol-3-yl)-8-methyl-3-phenyl-6,7,8,9-tetrahydro-5H-imidazo[1,5-a][1,4]diazepine-1-carboxamide]",,−,pEC50 [1]: < 5.00
"CN1CCCn2c(-c3ccccc3)nc(C(=O)Nc3nc(C(C)(C)C)cs3)c2C1 [Compound 596, N-(4-tert-butylthiazol-2-yl)-8-methyl-3-phenyl-6,7,8,9-tetrahydro-5H-imidazo[1,5-a][1,4]diazepine-1-carboxamide]",,,"EC50 ([1]; groups >100 nM-10 μM and >10 μM, cAMP, CHO-K1 hCB1, read-out: EC50 HCB1): > 10000 nM; EC50 (rat CB2 receptor (rCB2); groups >100 nM-10 μM and >10 μM, cAMP, CHO-K1 rCB2, read-out: EC50 RCB2): > 10000 nM"
"CNC(=O)[C@@H](NC(=O)c1nc(Cl)n2c1CNCCC2)C(C)(C)C [Compound 597, (S)-3-chloro-N-(3,3-dimethyl-1-(methylamino)-1-oxobutan-2-yl)-6,7,8,9-tetrahydro-5H-imidazo[1,5-a][1,4]diazepine-1-carboxamide]",,+,pEC50 [1]: < 5.00
